Columns and labels:
[1] = Determination of lipid-water partition coefficient (n-octanol/PBS pH 7.4); assay type: physicochemical; conditions: n-octanol/phosphate buffer solution (PBS), n-octanol / PBS 0.025 M
Procedure: A 2 mL centrifuge tube was added with 100 µL (10µCi) of a labeling solution, then added with 950 µL of n-octanol and 850 µL of phosphate buffer solution (PBS, 0.025 M, pH=7.4). The 2 mL centrifuge tube was subjected to vortex for 3 min (2,500 rpm) and standing until the reaction solution was layered, and then centrifuged at 9,000 rpm for 5 min. Three samples (each for 100 µL) were collected from each of the two phases, and placed in γ-counter for the determination of radioactive counting. The lipid-water partition coefficient (P) was calculated by Organic phase radioactive counting/ water phase radioactive counting, and was usually expressed as Log P. The log P values of the radioactive compounds provided in Examples 1-4 were shown in Table 3.

S180 tumor = test: Biodistribution in tumor-bearing mice; assay type: in vivo; conditions: for Blood / Bone / Heart / Kidney / Liver / Lung / Muscle / Small intestine / Spleen / Thyroid / Tumor / Tumor/blood ratio / Tumor/muscle ratio: i.v., mice bearing S180 tumor
Procedure: The mice bearing S180 tumors were injected intravenously via the tail vein respectively with the solutions (0.1 mL, 370 kBq) containing the radioactive drugs of Examples 1-4. The mice bearing S180 tumors were sacrificed by decapitation at different time points (30 min, 120 min) after the injection (5 mice for each time point). After dissection, the heart, liver, lung, kidney, spleen, bone, muscle, small intestine, blood and tumors were harvested, and measured for radioactivity with the γ-counter. The biodistribution individual organs or tissues was expressed as the percentage of the injected dose per gram of organ or tissue (% ID/g).

Work on `O=C(NC1C(O)OC(CO)C(O)C1O)c1cccc([N+]#[C][99Tc+]([C]#[N+]c2cccc(C(=O)NC3C(O)OC(CO)C(O)C3O)c2)([C]#[N+]c2cccc(C(=O)NC3C(O)OC(CO)C(O)C3O)c2)([C]#[N+]c2cccc(C(=O)NC3C(O)OC(CO)C(O)C3O)c2)([C]#[N+]c2cccc(C(=O)NC3C(O)OC(CO)C(O)C3O)c2)[C]#[N+]c2cccc(C(=O)NC3C(O)OC(CO)C(O)C3O)c2)c1` (stereo not shown) [^99mTc-3-CNBzDG] yielded a logP [1] of -3.74 ± 0.038, a Blood (S180 tumor; 30 min, n=5, mean ± SD) of 2.53 ± 0.83 % ID/g and a Bone (S180 tumor; 30 min, n=5, mean ± SD) of 1.44 ± 0.29 % ID/g. It also gave a Heart (S180 tumor; 30 min, n=5, mean ± SD) of 1.44 ± 0.21 % ID/g, a Kidney (S180 tumor; 30 min, n=5, mean ± SD) of 6.69 ± 0.68 % ID/g and a Liver (S180 tumor; 30 min, n=5, mean ± SD) of 1.38 ± 0.24 % ID/g. The Lung (S180 tumor; 30 min, n=5, mean ± SD) was 4.00 ± 0.52 % ID/g, the Muscle (S180 tumor; 30 min, n=5, mean ± SD) was 0.77 ± 0.06 % ID/g and the Small intestine (S180 tumor; 30 min, n=5, mean ± SD) was 2.05 ± 0.29 % ID/g. The Spleen (S180 tumor; 30 min, n=5, mean ± SD) was 1.06 ± 0.27 % ID/g, the Thyroid (S180 tumor; 30 min, n=5, mean ± SD) was 0.03 ± 0.01 %ID/g and the Tumor (S180 tumor; 30 min, n=5, mean ± SD) was 2.51 ± 0.52 % ID/g. For the same compound, the Tumor/blood ratio (S180 tumor; 30 min, n=5, mean ± SD) was 1.04 ± 0.22, the Tumor/muscle ratio (S180 tumor; 30 min, n=5, mean ± SD) was 3.28 ± 0.66 and the Blood (S180 tumor; 120 min, mean ± SD) was 0.27 ± 0.02 % ID/g. The Bone (S180 tumor; 120 min, mean ± SD) was 0.42 ± 0.03 % ID/g, the Heart (S180 tumor; 120 min, mean ± SD) was 0.54 ± 0.07 % ID/g and the Kidney (S180 tumor; 120 min, mean ± SD) was 4.49 ± 0.56 % ID/g. For the same compound, the Liver (S180 tumor; 120 min, mean ± SD) was 0.89 ± 0.09 % ID/g, the Lung (S180 tumor; 120 min, mean ± SD) was 0.76 ± 0.20 % ID/g and the Muscle (S180 tumor; 120 min, mean ± SD) was 0.24 ± 0.05 % ID/g. The Small intestine (S180 tumor; 120 min, mean ± SD) was 0.70 ± 0.10 % ID/g, the Spleen (S180 tumor; 120 min, mean ± SD) was 0.43 ± 0.17 % ID/g and the Thyroid (S180 tumor; 120 min, mean ± SD) was 0.01 ± 0.00 %ID/g. For the same compound, the Tumor (S180 tumor; 120 min, mean ± SD) was 1.47 ± 0.22 % ID/g, the Tumor/blood ratio (S180 tumor; 120 min, mean ± SD) was 5.39 ± 0.79 and the Tumor/muscle ratio (S180 tumor; 120 min, mean ± SD) was 6.16 ± 0.71. For the same compound, the “target/non-target ratio compared with 99mTc-CNPEDG” value (S180 tumor; 120 min p.i., in words) was “better target/non-target ratio”, the “tumor uptake compared with 99mTc-CNPEDG” value (S180 tumor; 120 min p.i., in words) was “lower tumor uptake” and the “tumor/muscle, tumor/blood and tumor/lung ratio compared with p-substituted 99mTc complexes” value (S180 tumor; 120 min p.i., in words) was “higher”. The Tumor/lung ratio (S180 tumor; 120 min p.i., mean ± SD) was 2.01 ± 0.35.
